Measured values taken from ChEMBL document CHEMBL4428130, “Novel benzoquinoline derivatives via unpredicted condensation of ethyl propiolate and naphthylamines: Synthesis and topoisomerase inhibition activity” (2016).
Active and inactive are the calls of the source. The rule behind the calls is not given here.

Columns and labels:
HeLa = experiment: Growth inhibition of human HeLa cells after 72 hrs by trypan blue assay; type: functional
HepG2 = experiment: Growth inhibition of human HepG2 cells after 72 hrs by trypan blue assay; type: functional; conditions: HepG2, 72 h
HL-60 = experiment: Growth inhibition of human HL60 cells after 72 hrs by trypan blue assay; type: functional; conditions: HL-60, 72 h
[1] = target: DNA topoisomerase 2-alpha (Homo sapiens) (UniProt P11388); experiment: Inhibition of human recombinant topoisomerase-2 alpha expressed in Escherichia coli assessed as reduction in supercoiled pBR322 DNA relaxation at 8 uM after 60 mins by ethidium bromide staining based agarose gel electrophoresis
DNA topoisomerase 2-alpha (Homo sapiens), sequence (P11388 whole entry): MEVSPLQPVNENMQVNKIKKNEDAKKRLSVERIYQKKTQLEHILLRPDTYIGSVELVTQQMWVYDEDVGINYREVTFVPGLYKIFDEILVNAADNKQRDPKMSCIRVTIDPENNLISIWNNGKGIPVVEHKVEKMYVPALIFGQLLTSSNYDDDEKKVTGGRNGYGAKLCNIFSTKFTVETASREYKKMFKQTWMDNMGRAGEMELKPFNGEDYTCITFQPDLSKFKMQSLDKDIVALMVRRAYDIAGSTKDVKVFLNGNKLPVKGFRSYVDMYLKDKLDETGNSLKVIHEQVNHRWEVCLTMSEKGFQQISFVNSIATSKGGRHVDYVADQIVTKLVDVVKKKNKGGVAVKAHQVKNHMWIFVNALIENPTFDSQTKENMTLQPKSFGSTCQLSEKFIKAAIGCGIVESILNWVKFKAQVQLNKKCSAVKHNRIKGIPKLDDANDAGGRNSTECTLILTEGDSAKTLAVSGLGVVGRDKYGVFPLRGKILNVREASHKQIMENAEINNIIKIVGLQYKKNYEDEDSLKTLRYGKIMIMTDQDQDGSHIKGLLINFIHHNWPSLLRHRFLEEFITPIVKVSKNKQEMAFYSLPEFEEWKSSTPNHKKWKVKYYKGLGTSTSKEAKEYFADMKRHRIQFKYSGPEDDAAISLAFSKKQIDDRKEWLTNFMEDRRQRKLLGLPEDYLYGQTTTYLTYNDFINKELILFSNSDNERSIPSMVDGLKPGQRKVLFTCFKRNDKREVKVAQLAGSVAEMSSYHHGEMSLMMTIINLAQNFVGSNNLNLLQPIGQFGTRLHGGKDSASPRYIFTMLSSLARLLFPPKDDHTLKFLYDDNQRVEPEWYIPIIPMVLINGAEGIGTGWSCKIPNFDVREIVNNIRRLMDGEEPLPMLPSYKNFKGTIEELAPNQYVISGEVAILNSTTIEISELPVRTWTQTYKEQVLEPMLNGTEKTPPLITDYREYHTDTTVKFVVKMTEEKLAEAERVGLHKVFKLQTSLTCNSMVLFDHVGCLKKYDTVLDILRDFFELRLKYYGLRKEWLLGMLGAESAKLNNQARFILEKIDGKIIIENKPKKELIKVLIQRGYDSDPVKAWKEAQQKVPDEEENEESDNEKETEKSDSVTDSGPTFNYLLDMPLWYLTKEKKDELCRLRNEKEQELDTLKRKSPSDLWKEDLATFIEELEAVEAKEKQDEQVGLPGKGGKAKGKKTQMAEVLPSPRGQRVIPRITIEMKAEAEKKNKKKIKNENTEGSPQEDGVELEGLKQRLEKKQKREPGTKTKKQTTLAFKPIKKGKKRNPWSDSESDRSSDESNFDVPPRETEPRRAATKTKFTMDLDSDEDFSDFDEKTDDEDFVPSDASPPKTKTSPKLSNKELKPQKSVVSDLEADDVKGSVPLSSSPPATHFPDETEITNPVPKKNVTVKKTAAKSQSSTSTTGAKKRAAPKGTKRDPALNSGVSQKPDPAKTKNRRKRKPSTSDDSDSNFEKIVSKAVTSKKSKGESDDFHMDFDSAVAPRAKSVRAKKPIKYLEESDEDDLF

[2] = target: DNA topoisomerase 2-alpha (Homo sapiens) (UniProt P11388); experiment: Poison activity at human recombinant topoisomerase-2 alpha expressed in Escherichia coli assessed as generation of linear DNA using supercoiled pBR322 DNA at 8 uM after 60 mins by ethidium bromide staining based agarose gel electrophoresis
Salmon testes DNA = experiment: Binding affinity to Salmon testis DNA assessed as drug-DNA complex formation at drug:DNA ratio of 0.08 at 310 to 380 nanometer by linear flow dichroism method; type: nucleic-acid assay; conditions: Salmonidae
[3] = target: DNA topoisomerase 2-alpha (Homo sapiens) (UniProt P11388); experiment: Inhibition of human recombinant topoisomerase-2 alpha expressed in Escherichia coli assessed as reduction in supercoiled pBR322 DNA relaxation after 60 mins by ethidium bromide staining based agarose gel electrophoresis
[4] = target: DNA topoisomerase 2-alpha (Homo sapiens) (UniProt P11388); experiment: Poison activity at human recombinant topoisomerase-2 alpha expressed in Escherichia coli assessed as generation of linear DNA using supercoiled pBR322 DNA at 100 to 200 uM after 60 mins by ethidium bromide staining based agarose gel electrophoresis

Compound | GI50 (HeLa) | GI50 (HepG2) | GI50 (HL-60) | inhibition [1] | Activity (Salmon testes DNA) | inhibition [3] | Activity [2] | Activity [4]
COc1cc(NS(C)(=O)=O)ccc1Nc1c2ccccc2nc2ccccc12 |  |  |  | Active |  |  | Active | 
CN(C)CCNC(=O)c1cnc2ccc3ccccc3c2c1 | > 50 µM | 27.8 µM | 24.1 µM |  | Active | Dose-dependent effect |  | inactive
CN(C)CCN1CCN(C(=O)c2cnc3c(ccc4cc5c(cc43)OCCO5)c2)CC1 | > 50 µM | 39.4 µM | 33.8 µM |  |  |  |  | 
CN(C)CCN1CCN(C(=O)c2cnc3c(ccc4ccccc43)c2)CC1 | > 50 µM | > 50 µM | > 50 µM |  |  |  |  | 
CCOC(=O)c1cnc2c(ccc3cc4c(cc32)OCCO4)c1 | > 50 µM | > 50 µM | > 50 µM |  |  |  |  | 
CN(C)CCNC(=O)c1cnc2c(ccc3ccccc32)c1 | > 50 µM | 32.2 µM | 29.8 µM |  |  |  |  | 
CCOC(=O)c1cnc2c(ccc3ccccc32)c1 | > 50 µM | ≥ 50 µM | > 50 µM |  |  |  |  | 

Second part, led by results:

GI50 (HeLa) | GI50 (HepG2) | GI50 (HL-60) | inhibition [1] | Activity (Salmon testes DNA) | inhibition [3] | Compound | Activity [2] | Activity [4]
> 50 µM | > 50 µM | 32.5 µM |  |  |  | O=C(NCCN1CCOCC1)c1cnc2c(ccc3cc4c(cc32)OCCO4)c1 |  | 
> 50 µM | > 50 µM | > 50 µM |  |  |  | O=C(NCCN1CCOCC1)c1cnc2ccc3ccccc3c2c1 |  | 
> 50 µM | ≥ 50 µM | ≥ 50 µM |  |  |  | CCOC(=O)c1cnc2ccc3ccccc3c2c1 |  | 
> 50 µM | > 50 µM | 30 µM |  |  |  | CN(C)CCNC(=O)c1cnc2c(ccc3cc4c(cc32)OCCO4)c1 |  | 
> 50 µM | > 50 µM | > 50 µM |  |  |  | CN(C)CCN1CCN(C(=O)c2cnc3ccc4ccccc4c3c2)CC1 |  | 
> 50 µM | > 50 µM | > 50 µM |  |  |  | O=C(NCCN1CCOCC1)c1cnc2c(ccc3ccccc32)c1 |  | 
